“Also recorded” adds a separate entry of the source.
Columns and labels:
[1] = system: rabbit articular chondrocytes; assay: MTT cell viability of IL-1β-treated articular chondrocytes; assay type: cell-based; details: IL-1β 1 ng/mL 20 h
Method: We assessed the viability of the chondrocytes by MTT assay to evaluate the cytotoxic effects of C8 on these cells. Chondrocytes were treated for 20 h with 1 ng/mL IL-1β alone or 1 h after the addition of C8 at 0.31 to 9.92 µM, which corresponded to 0.5- to 5-fold the IC50 of C8 on human GIIAPLA2 activity (Table 2). Three different culture medium compositions were used: DMEM alone, or supplemented with 0.1% BSA or 2% FCS. […] Thus, we evaluated the anti-inflammatory activity of C8 in culture conditions from 0.31 to 1.24 µM in DMEM alone and from 0.31 to 4.96 µM in DMEM supplemented with 0.1% BSA or 2% FCS.
Articular chondrocytes were isolated from 5-week-old Fauve de Bourgogne female rabbits (CPA, Orleans, France) and cultured at the first passage in conditions avoiding cell dedifferentiation as previously described. Cells were cultured at 37°C in 12-well plates in Ham's F-12 medium containing 10% FCS, 20 IU/mL penicillin, and 20 µg/mL streptomycin (all from Invitrogen) until nearly confluent. Then medium was replaced with DMEM (Invitrogen) containing 20 IU/mL penicillin, and 20 µg/mL streptomycin and, if necessary, 0.1% fatty acid free BSA (Sigma) or 2% FCS. At this time the C8 compound dissolved in DMSO (Sigma) was added to the medium (the amount of DMSO was kept at 1‰ (v/v) in all the wells). 1 h after the addition of C8, IL-1β (PeproTech) was added to the medium. Consequently, chondrocytes were incubated for 20 h with IL-1β and for 21 h with C8.
At 18 h after the addition of IL-1β, 3-[4,5-dimethylthiazol-2-yl]-2,5-diphenyl tetrazolium bromide (MTT; Sigma) was added to the cell culture medium at 0.5 mg/mL. Cells were incubated 2 more hours at 37°C. The medium was then removed, and DMSO was added to dissolve the formazan crystals. The absorbance of the resulting solution was spectrophotometrically measured at 570 and 690 nm (background). The value corresponding to absorbance570nm - absorbance690nm was directly proportional to the number and activity of the viable cells.

COX-1 = assay: Western blot of COX-1 protein level in IL-1β-treated chondrocytes; assay type: cell-based, rabbit; details: C8 0.31-1.24 µM in DMEM, IL-1β 20 h
Method: As expected, COX-1 protein was detectable but COX-2 and iNOS proteins were undetectable in untreated control conditions (Fig. 6A). […] Consequently, the protein ratio of COX-1 to COX-2 was not modified by C8 (Fig. 6B). […] Cell lysates were centrifuged for 15 min at 14000 rpm at 4°C and supernatants were collected. Protein concentrations were determined by the Bradford method by use of the Protein Assay dye reagent (Bio-Rad). Protein extracts (20 µg) were size-separated by SDS-PAGE in a 10% (w/v) polyacrylamide gel and electroblotted to a nitrocellulose membrane. Equal protein loading and transfer was confirmed by staining the membrane with Ponceau Red [0.2% (w/v) in H2O:acetic acid 99∶1]. The membrane was sequentially incubated with antibodies against COX-1 (1∶200, Santa Cruz Biotechnology), COX-2 (1∶500, Santa Cruz Biotechnology), iNOS (1∶400, BD Biosciences) or α-tubulin (1∶100, Santa Cruz Biotechnology) and then with peroxidase-conjugated donkey anti-goat IgG (1∶20000) or donkey anti-rabbit IgG (1∶200, both Santa Cruz Biotechnology). Immunocomplexes were detected by an enhanced chemiluminescence kit (Amersham Bioscience). The membrane was stripped by incubation in 0.2 M NaOH between successive immunodetections. Semi-quantitative scanning densitometry involved use of the ImageJ program (NIH, USA).

[2] = system: COX-1/COX-2 protein ratio; assay: COX-1/COX-2 protein ratio by scanning densitometry of western blots; assay type: cell-based, rabbit; details: C8 0.31-1.24 µM in DMEM, IL-1β 20 h
Text: As expected, COX-1 protein was detectable but COX-2 and iNOS proteins were undetectable in untreated control conditions (Fig. 6A). […] Consequently, the protein ratio of COX-1 to COX-2 was not modified by C8 (Fig. 6B). […] Results from one representative experiment in five are shown. (B) Intensities of the COX-1 and COX-2 immunoreactive bands evaluated by semi-quantitative scanning densitometry. Data represent the COX-1/COX-2 protein ratio and are expressed as relative arbitrary units, where the IL-1β-treated group represents 1. Values are means ± SEM (n = 5 independent determinations). No significant differences were found between the groups. […] Cell lysates were centrifuged for 15 min at 14000 rpm at 4°C and supernatants were collected. Protein concentrations were determined by the Bradford method by use of the Protein Assay dye reagent (Bio-Rad). Protein extracts (20 µg) were size-separated by SDS-PAGE in a 10% (w/v) polyacrylamide gel and electroblotted to a nitrocellulose membrane. Equal protein loading and transfer was confirmed by staining the membrane with Ponceau Red [0.2% (w/v) in H2O:acetic acid 99∶1]. […] Immunocomplexes were detected by an enhanced chemiluminescence kit (Amersham Bioscience). […] Semi-quantitative scanning densitometry involved use of the ImageJ program (NIH, USA).

With O=c1[nH]c(Cc2ccc(OCCCCCOc3cc4ccccc4c4ccccc34)cc2)no1 [C8] the “cytotoxic effects (MTT)” value ([1]; DMEM alone, C8 at 0.31 to 2.48 µM) was “no cytotoxic effects”, the “cytotoxic effects (MTT)” value ([1]; DMEM with 0.1% BSA, C8 at 0.31 to 9.92 µM) was “no cytotoxic effects; also recorded: did not decrease cell viability” and the “cytotoxic effects (MTT)” value ([1]; DMEM with 2% FCS, C8 at 0.31 to 9.92 µM) was “no cytotoxic effects; also recorded: did not decrease cell viability”. The “effect on COX-1 protein level” value (COX-1) was “did not alter” and the “effect on protein ratio of COX-1 to COX-2” value [2] was “not modified”.
